Article PMC9786614, “Nerve Targeting via Myelin Protein Zero and the Impact of Dimerization on Binding Affinity” (Molecules, 2022)
“Also recorded” adds a separate entry of the source. Read-outs that look alike come from different tables or passages of the source. Starred links: 1 amine or outer side, 2 acyl side, 3 side chain; linkers in the order of their positions; H or OH if unused. Positions of bridges follow the written chain, without caps; N, C: chain ends. Residues, ends and D or L forms follow the SMILES beside them. Chains are numbered I, II in the order given. *: point of attachment. X1 = CC1(C)C(/C=C/C=C/C=C2/N(CCCCCC(=O)NCCN3C(=O)CC([*:1])C3=O)c3ccc(S(=O)(=O)O)cc3C2(C)C)=[N+](CCCCCC(=O)NCCN2C(=O)CC([*:2])C2=O)c2ccc(S(=O)(=O)[O-])cc21; X2 = CC1(C)C(=C/C=C/C=C/C2=[N+](CCCCS(=O)(=O)O)c3ccc(S(=O)(=O)[O-])cc3C2(C)C)N(CCCCCC(=O)NCCN2C(=O)CC(*)C2=O)c2ccc(S(=O)(=O)O)cc21

How the values were obtained:
[1] = Stacking behavior (absorbance spectra, dilution series); format: physicochemical; conditions: absorbance spectra in water, dilution series 8 μM to 0.5 μM, normalized
Method: (§1) The molar extinction coefficient (ε), quantum yield (QY), brightness, lipophilicity, serum protein binding, photo- and chemical stability, and stacking behavior were determined according to a slight modification of the protocol put forward by Hensbergen et al.. Sulfonate-(SO3)Cy5(SO3)-COOH [27] was measured and used as a control for QY.
To determine the stacking behavior of the mono- and bi-labeled compounds and their corresponding dyes, a dilution series of Cy5-(P0_101–125)2 and Cy5-P0_101–125 were made, consisting of the dye concentrations ranging from 8 μM to 0.5 μM.
Normalization of the data set for stacking behavior was performed using Equation (1):(1) x(normalized)=(x−xmin)/range of x where range of x= xmax−xmin .

myelin protein zero (P0) = target: T1, myelin protein zero (P0) (Rattus norvegicus, UniProt P06907); assay: Saturation binding by flow cytometry on P0-expressing Schwannoma cells; conditions: for Nonspecific binding: saturation binding fit, RT4-D12 cells; for Nonspecific binding / Kd: flow cytometry; for Kd: saturation binding, RT4-D12 Schwannoma cells, 0–2000 nM tracer in 0.1% BSA in PBS, 1 h at 4 °C, triplicate, One site—Total fit
T1 construct: RT4-D12 Schwannoma cells were selected for in vitro experiments based on their origin and their specific P0-expressing properties; endogenous in cells; host or cells: RT4-D12 Schwannoma cells
T1 sequence (P06907 30-248): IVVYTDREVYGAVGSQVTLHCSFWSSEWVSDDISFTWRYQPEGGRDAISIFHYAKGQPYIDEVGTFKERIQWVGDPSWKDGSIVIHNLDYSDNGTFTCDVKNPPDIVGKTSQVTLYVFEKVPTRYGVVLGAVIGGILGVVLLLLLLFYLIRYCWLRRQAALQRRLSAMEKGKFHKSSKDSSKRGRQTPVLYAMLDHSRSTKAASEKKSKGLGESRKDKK
Method: RT4-D12 Schwannoma cells were selected for in vitro experiments based on their origin and their specific P0-expressing properties.
All chemicals were received from Actu-All Chemical (Oss, The Netherlands), Sigma Aldrich (St. Louis, MO, USA), Tokyo Chemical Industry (Tokyo, Japan), Biosolve BV (Valkenswaard, The Netherlands), VWR Chemicals (Solon, OH, USA) and used without further purification. DMF and DMSO were dried over four Å molecular sieves at least for 24 h prior to use. Preparative high-pressure liquid chromatography (prep-HPLC) was performed on a Waters HPLC system (Waters Chromatography B.V., Etten-Leur, The Netherlands) using a 2545 quaternary gradient module pump and a 2489 UV detector. Dr. Maisch ReproSil-Pur 120 C18-AQ 10 μM (250 mm × 20 mm) column (Dr. Maisch HPLC GmbH, Ammerbuch-Entringen, Germany) was applied operating flow rate of 12 mL/min. HPLC analysis was carried out on Waters Alliance 2690 using a Waters symmetry C18 column (2.1 × 150 mm) with a gradient of 0.1% TFA in H2O/MeCN 95:5 to 0.1% TFA in H2O/MeCN 5:95 in 17 min (0.3 mL/min). Mass spectrometry was performed on a Microflex LT/SH MALDI-TOF mass spectrometer (Bruker, Billerica, MA, USA). Lyophilization was performed with a VaCo 2-II lyophilizer (Zirbus technology GmbH, Bad Grund (Harz), Germany). Absorption spectrometry was performed using a UV1280 UV–vis spectrometer (Shimadzu, Kyoto, Japan), and fluorescence spectrometry was performed using an LS55 (Perkin Elmer, Waltham, MA, USA). The fluorescence spectra at different temperatures were measured on an Agilent Cary Eclipse (Agilent Cary Eclipse, Santa Clara, CA, USA). NMR spectra were measured on a Bruker Avance 300 (Bruker, Billerica, MA, USA) operating at 300 MHz for 1 H and 75.00 MHz for 13 C, using the residual solvents (CDCl3 and DMSO-d6) as internal references, and on a Bruker Advance III spectrometer operating at 600 MHz for 1H and equipped with a 2.5 mm PH SEI probe (Bruker, Billerica, MA, USA). For photostability, a prototype D-Light P surgical laparoscope (KARL STORZ, Tuttlingen, Germany) was used. Fluorescence confocal imaging was performed using a SP8 WLL confocal microscope (Leica Microsystems, Wetzlar, Germany). Obtained images were analyzed using Leica Confocal Software (Leica Microsystems). Mean fluorescence intensity values per sample were measured using a LSRII flow cytometer (BD Biosciences, Franklin Lakes, NJ, USA) with APC-A settings (635 nm laser and 750 nm long-pass filter). The binding constant (KD) of the normalized geometric means were fitted with equations in the Prism 5 software (GraphPad, San Diego, CA, USA). Statistical evaluation (Student’s t-test) for all properties was performed in the Prism 5 software. […]
Flow cytometric analysis was performed using RT4-D12 Schwannoma cells after incubation with either Cy5-P0_101–125 or Cy5-(P0_101–125)2. […] Cells were gated on Forward Scatter and Side Scatter, and a minimum of 10,000 viable cells were analyzed per sample. […]
(§2) For evaluation of the differences in signal intensity per concentration between Cy5-P0_101–125 and Cy5-(P0_101–125)2 (5–1000 nM), the mean signal intensity of Cy5-P0_101–125 at 1000nM was set at 100%, and intensities measured at other tracer concentrations or for Cy5-(P0_101–125)2 were calculated as % increase or decrease from this point. The KD values of the evaluated peptides were calculated using the “Binding-Saturation, One site—Total” nonlinear regression equation, as described previously.

[2] = not given; remark: listed apart in the source
[3] = not given; remark: listed apart in the source
RT4-D12 Schwannoma cells [4] = assay: Fluorescence confocal microscopy of P0 staining; format: cell-based; conditions: 1 h at 4 °C
Method: RT4-D12 Schwannoma cells were trypsinized and seeded onto 35 mm culture dishes that contained a glass insert (MatTek co, Emu Plains, New South Wales, Australia) two days prior to the imaging experiment. Then, 0.5–1000 nM Cy5-P0_101–125 or Cy5-(P0_101–125)2 was added one hour prior to imaging (incubation at 4 °C; n = 3 per tracer). Peptide solutions were sonicated for 20 s prior to addition to prevent aggregation of the peptide in solution. Lysotracker (lysotracker green; 2 µL/mL DND-26, Thermo Fisher, Waltham, MA, USA) and Hoechst (33,342, 1 mg/mL, 1:500, Thermo Fisher) were added to the to provide staining of lysosomes and the nucleus, respectively.
Images were acquired following Cy5 excitation at 633 nm. Emission was collected between 650–700 nm. For visualization of the lysosomes in the cells, a 488 nm laser was used for excitation, while emission was collected between 500–550 nm. Hoechst was excited at 405 nm, and emission was collected between 410–460 nm. Fluorescence confocal images were acquired using a Leica SP8 WL at sequential settings and 63× magnification. Image analysis was performed using Leica Confocal Software (Leica Microsystems). Semi-quantitative analysis of the Cy5 signal intensity was performed using the quantification tool in Fiji software according to previously described methods.

[5] = not given; remark: listed apart in the source
[6] = Photostability (photobleaching); format: physicochemical; conditions: illumination in 5 min cycles, 30 min in total, Storz D-Light P system at 50 mm, fluorescence read-out
Method: as §1
For photostability measurements, the cuvettes were sealed and illuminated for 5 min (30 min in total) by a modified Storz D-Light P fluorescence imaging system at a distance of 50 mm in a dark environment. After each illumination cycle, the fluorescence intensity was determined.

[7] = not given; remark: listed apart in the source
serum protein = assay: Serum protein binding; format: in vitro ADME; conditions: serum; protocol modified from Hensbergen et al. [34]; mean ± spread
Method: as §1

[8] = free dye; previously reported; ref Spa et al. [27]; cited from earlier work
Text: Table 1 Chemo- and photophysical properties of mono-labeled Cy5-P0_101–125 and bi- labeled Cy5-(P0_101–125)2 and corresponding free cyanine dyes. | column: Sulfonate-(SO3)Cy5(SO3)-COOH *

[9] = Stability towards glutathione; format: physicochemical
Method: For the stability towards glutathione, which is used as a measure of stability towards thiols and amines in vivo, 125 µL of a 2 mM solution of the compound in (0.1 M HEPES pH 7.4, pre-sparged with N2) was added to 125 µL of a 4 mM solution of reduced glutathione in 0.1M HEPES pH 7.4 (pre-sparged with N2). The solutions were mixed and then placed in a sample manager. A sample was analyzed at 37 degrees over 6 h in total to determine the amount of compound relative to t = 0.

Lipophilicity logP(o/w) = format: physicochemical; conditions: octanol/water; protocol modified from Hensbergen et al. [34]; mean ± spread
Method: as §1

Serum protein binding = format: in vitro ADME; conditions: protocol modified from Hensbergen et al. [34]; mean ± spread
Method: as §1

RT4-D12 Schwannoma cells [10] = assay: Flow cytometry quantification of fluorescence signal intensity per tracer concentration; format: cell-based
Method: Flow cytometric analysis was performed using RT4-D12 Schwannoma cells after incubation with either Cy5-P0_101–125 or Cy5-(P0_101–125)2. For saturation binding experiments, Cy5-labelled peptides were added to the cell samples in a range of 0–2000 nM in 50 µL of 0.1% bovine serum albumin (BSA) in PBS, as previously described. After 1 h of incubation at 4 °C, the cells were washed two times with 300 µL of 0.1% BSA in PBS and re-suspended in 300 µL of 0.1% BSA. Cells were gated on Forward Scatter and Side Scatter, and a minimum of 10,000 viable cells were analyzed per sample. All experiments were performed in triplicate.
as §2

Row | Compound | stokes shift | Nonspecific binding (myelin protein zero (P0)) | Kd (myelin protein zero (P0)) | λEm in H2O/PBS [2] | Brightness in PBS [3] | P0-related staining at 100 nM tracer (RT4-D12 Schwannoma cells [4]) | loss of fluorescence intensity with temperature increase [5] | Photobleaching, % [6] | λex in H2O/PBS [7] | fraction unbound (serum protein) | further results
1 | CC[C@H](C)[C@H](NC(=O)[C@H](CC(=O)O)NC(=O)[C@@H]1CCCN1C(=O)[C@@H]1CCCN1C(=O)[C@H](CC(N)=O)NC(=O)[C@H](CCCCN)NC(C)=O)C(=O)N[C@H](C(=O)NCC(=O)N[C@@H](CCCCN)C(=O)N[C@H](C(=O)N[C@@H](CO)C(=O)N[C@@H](CCC(N)=O)C(=O)N[C@H](C(=O)N[C@H](C(=O)N[C@@H](CC(C)C)C(=O)N[C@@H](Cc1ccc(O)cc1)C(=O)N[C@H](C(=O)N[C@@H](Cc1ccccc1)C(=O)N[C@@H](CCC(=O)O)C(=O)N[C@@H](CCCCN)C(=O)N[C@H](C(=O)N1CCC[C@H]1C(=O)N[C@H](C(=O)N[C@@H](CCCNC(=N)N)C(=O)N[C@@H](Cc1ccc(O)cc1)C(=O)N[C@@H](CSC1CC(=O)N(CCNC(=O)CCCCCN2C(=C/C=C/C=C/C3=[N+](CCCCS(=O)(=O)O)c4ccc(S(=O)(=O)[O-])cc4C3(C)C)C(C)(C)c3cc(S(=O)(=O)O)ccc32)C1=O)C(N)=O)[C@@H](C)O)C(C)C)C(C)C)[C@@H](C)O)C(C)C)[C@@H](C)O)C(C)C (stereo partly shown) [Cy5-P0_101–125] (Ac-KNPPDIVGKTSQVTLYVFEKVPTRYC(X2)-NH2) | 21 nm | 0.020 | 105 nM | 671 nm | 55.7 M⁻¹ cm⁻¹ | Only a faint P0-related signal | 70% | 94% | 650 nm | 0.11 | stacking behavior (dye stacking / aggregation) [1]: higher “shoulder peak”; also recorded: typical “stacking shoulder” appears only for a mono-labeled Cy5-P0_101–125 at higher concentration
2 | Sulfonate-(SO3)Cy5(SO3)-COOH |  |  |  |  |  |  |  |  |  |  | Glutathione stability (at 6 h), % [8]: 95%; Net charge [8]: −2; Photobleaching, % [8]: 93%; Serum protein binding, % [8]: 49 ± 8%; logP(o/w) [8]: −1.42 ± 0.00
3 | COOH-(SO3)Cy5(SO3)-COOH [reference compound] |  |  |  |  |  |  |  | 95% |  |  | Glutathione stability (at 6 h), % ([9]; 2 mM compound mixed 1:1 with 4 mM reduced glutathione, 0.1 M HEPES pH 7.4 (N2 sparged), 37 degrees, amount relative to t = 0): 95%; logP(o/w) (Lipophilicity logP(o/w)): −1.62 ± 0.01; Serum protein binding, % (Serum protein binding): 70 ± 4%
4 | I: Ac-KNPPDIVGKTSQVTLYVFEKVPTRYC-NH2 / II: Ac-KNPPDIVGKTSQVTLYVFEKVPTRYC-NH2 (linker I:26-II:26 via X1) [Cy5-(P0_101–125)2] | 17 nm | 0.022 | 70.3 nM | 671 nm | 49.2 M⁻¹ cm⁻¹ | cells could be clearly discriminated | 65% | 71% | 654 nm | 0.37 | fold increase in affinity compared to Cy5-P0_101–125 (myelin protein zero (P0); from KD values, p = 0.003): 1.5 fold; remaining at 6 h, 1 mM ([9]; HEPES buffer with reduced glutathione, 2 mM compound mixed 1:1 with 4 mM reduced glutathione, 0.1 M HEPES pH 7.4 (N2 sparged), 37 degrees, amount relative to t = 0): 96%; degradation in glutathione stability test ([9]; reduced glutathione, 0.1 M HEPES pH 7.4, 37 degrees, 6 h): 4%; fold increase in staining efficiency compared to Cy5-P0_101–125 (RT4-D12 Schwannoma cells [10]; P0 expressing Schwannoma cells, equal staining at 4-fold lower concentration): ~4 fold; higher fluorescence signal intensity compared to Cy5-P0_101–125 at the same concentration, range (RT4-D12 Schwannoma cells [10]; flow cytometry, tracer 5–1000 nM, RT4-D12 cells): 34–59%; higher fluorescence signal intensity compared to Cy5-P0_101–125 at the same concentration, average (RT4-D12 Schwannoma cells [10]; flow cytometry, tracer 5–1000 nM, RT4-D12 cells, p < 0.00001): 44%; logP (Lipophilicity logP(o/w)): -0.57 ± 0.01
